Measurements taken from patent publication US10858407B2 (priority 2014, dated 2020).

Tested on: potassium ion channel current of the DRG neurons
Assay type: cell-based, SD rats
Settings: 5 mM

Nc1ccncc1 [4AP, 4-aminopyridine]
Current inhibition rate: 0.338 | Current recorded after loading: 0.9766 nA
